Molecular target: human PAD4 (hPAD4) (Homo sapiens (Human), UniProt Q9UM07)
Test: RFMS Human PAD4 Functional Assay
Format: biochemical
Conditions: rapid-fire mass spectrum (RFMS) assay; 5 nM hPAD4 enzyme, 250 μM BAEE, 30 min preincubation at 37° C.
Method: Compounds of the present invention were assayed as inhibitors of PAD4 using the assay protocol described below.
RFMS Human PAD4 Functional Assay:
Compounds were solubilized in 100% DMSO to achieve a10 mM compound concentration. Compound stock solutions were stored at RT. A series of dilutions were prepared in DMSO and mixed 8 times with 20 μL mixing volume. Final top concentration of compound in the assay is 50 μM. Final assay conditions were as follows: • Reaction volume: 26 μl • Assay buffer: 25 mM hepes, pH 7.5, 5 mM NaCl, 1 mM DTT, 0.2 mg/ml BSA, 0.01% CHAPS, 50 μM Calcium, and 5 μM TPEN • Final concentrations: 5 nM hPAD4 enzyme, 250 μM BAEE, and 0.5% DMSO • Total incubation time: 30 mins compound and enzyme preincubation at 37° C., 90 min enzyme/substrate reaction, 30 min reaction with phenyl glyoxal at 37° C. • Stop solution: 40 μl 5% TCA in ACN
0.13 μL of compound solution was added to 13 μL of 10 nM PAD4 in assay buffer. After 30 min 13 μl of 500 μM of BAEE was added in 25 mM hepes, pH 7.5, 5 mM NaCl, 1 mM DTT, 0.2 mg/ml BSA, 0.01% CHAPS, 50 μM Calcium, 5 μM TPEN was added and the reaction incubated for 90 min at 37° C. The enzymatic reaction was quenched by addition of 15 μl of 6.1N TCA, 100% Final Concentration is 20%, 35 μl of 8.5 mM phenyl glyoxal (final concentration 4 mM) is then added and the reaction is incubated for 30 min at 37° C.
After 30 minutes the plates are spun down to remove all precipitate. The enzyme reaction was quenched with an equal volume of methanol containing internal standard (modified citrulline). Samples were loaded onto the Rapid Fire RF300 system (Agilent) wherein they were first sipped for 1000 ms and then directly loaded to a C18 separations cartridge using a mixture of acetonitrile containing 0.01% formic acid for 3000 ms desalting. The flow rate of the mobile phase was 1.5 ml/min. Once the samples were eluted from the cartridge, a mobile phase of acetonitrile containing 0.01% formic acid was used to move the samples into the mass spectrometer for 4000 ms at a flow rate of 1.25 ml/min/Sciex API5500 triple quadrupole mass spectrometer (Applied Biosystems) equipped with ESI was used to analyze the peptidyl citrulline and internal standard ions.
MRM transition of product and internal standard were monitored at m/z 424.5 to 350.4 and m/z 293 to 247 respectively. The dwell time for each transition was set at 200 ms, and the ESI voltage was used at 5500 with a source temperature of 400° C. Extracted ion peaks for each transition were integrated using the Rapid Fire Integrator software. Peak area of analyte was normalized with internal standard.).

Chain of human PAD4 (hPAD4) (Q9UM07 whole entry): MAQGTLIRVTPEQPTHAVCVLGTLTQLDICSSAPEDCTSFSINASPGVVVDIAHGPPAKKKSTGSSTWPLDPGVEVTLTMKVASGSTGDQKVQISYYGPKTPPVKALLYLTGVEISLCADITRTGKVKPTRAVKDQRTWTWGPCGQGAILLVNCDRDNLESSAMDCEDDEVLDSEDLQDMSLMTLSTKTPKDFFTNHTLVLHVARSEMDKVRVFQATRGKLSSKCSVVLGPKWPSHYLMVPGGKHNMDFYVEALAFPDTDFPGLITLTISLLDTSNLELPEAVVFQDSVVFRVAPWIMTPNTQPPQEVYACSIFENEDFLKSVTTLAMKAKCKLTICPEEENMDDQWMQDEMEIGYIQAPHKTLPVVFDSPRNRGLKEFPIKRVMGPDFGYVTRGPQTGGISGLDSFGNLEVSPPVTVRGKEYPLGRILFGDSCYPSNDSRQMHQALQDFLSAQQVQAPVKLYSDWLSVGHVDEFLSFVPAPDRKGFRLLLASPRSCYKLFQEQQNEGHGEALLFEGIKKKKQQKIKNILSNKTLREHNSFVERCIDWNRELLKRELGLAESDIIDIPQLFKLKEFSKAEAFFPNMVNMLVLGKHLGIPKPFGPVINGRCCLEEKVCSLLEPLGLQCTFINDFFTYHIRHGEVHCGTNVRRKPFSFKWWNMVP

IC50 | SMILES
34 nM | COc1cc(C(=O)N2C[C@H]3CC[C@@H]2[C@@H]3N)cc2nc(-c3cc4scc(C5CC(O)C5)c4n3CC3CC3)n(C)c12 (mixture of isomers) [Example 7, cis/trans-((1R,4R,7R)-7-amino-2-azabicyclo[2.2.1]heptan-2-yl)(2-(4-(cyclopropylmethyl)-3-(3-hydroxycyclobutyl)-4H-thieno[3,2-b]pyrrol-5-yl)-7-methoxy-1-methyl-1H-benzo[d]imidazol-5-yl)methanone]
40 nM | COc1cc(C(=O)N2C[C@H]3CC[C@@H]2[C@@H]3N)cc2nc(-c3cc4scc(C5CCCNC5)c4n3CC3CC3)n(C)c12 (single isomer, unassigned) [Example 9]
79 nM | COc1cc(C(=O)N2C[C@H]3CC[C@@H]2[C@@H]3N)cc2nc(-c3cc4scc(C5CCCNC5)c4n3CC3CC3)n(C)c12 (single isomer, unassigned) [Example 17]
38 nM | COc1cc(C(=O)N2C[C@H]3CC[C@@H]2[C@@H]3N)cc2nc(-c3cc4scc(C5CC(O)C5)c4n3CC3CC3)n(C)c12 (single isomer, unassigned) [Example 21]
82 nM | COc1cc(C(=O)N2C[C@H]3CC[C@@H]2[C@@H]3N)cc2nc(-c3cc4scc(C5CC(O)C5)c4n3CC3CC3)n(C)c12 (single isomer, unassigned) [Example 22]
63 nM | COc1cc(C(=O)N2C[C@H]3CC[C@@H]2[C@@H]3N)cc2nc(-c3cc4scc(C5COC5)c4n3CC3CC3)n(C)c12 [Example 2, ((1R,4R,7R)-7-amino-2-azabicyclo[2.2.1]heptan-2-yl)(2-(4-(cyclopropylmethyl)-3-(oxetan-3-yl)-4H-thieno[3,2-b]pyrrol-5-yl)-7-methoxy-1-methyl-1H-benzo[d]imidazol-5-yl)methanone]
127 nM | COc1cc(C(=O)N2C[C@H]3CC[C@@H]2[C@@H]3N)cc2nc(-c3cc4scc(C5CNC5)c4n3CC3CC3)n(C)c12 [Example 16, ((1R,4R,7R)-7-amino-2-azabicyclo[2.2.1]heptan-2-yl)(2-(3-(azetidin-3-yl)-4-(cyclopropylmethyl)-4H-thieno[3,2-b]pyrrol-5-yl)-7-methoxy-1-methyl-1H-benzo[d]imidazol-5-yl)methanone]
165 nM | COc1cc(C(=O)N2C[C@H]3CC[C@@H]2[C@@H]3N)cc2nc(-c3cc4scc(CC5CNC5)c4n3CC3CC3)n(C)c12 [Example 18, ((1R,4R,7R)-7-amino-2-azabicyclo[2.2.1]heptan-2-yl)(2-(3-(azetidin-3-ylmethyl)-4-(cyclopropylmethyl)-4H-thieno[3,2-b]pyrrol-5-yl)-7-methoxy-1-methyl-1H-benzo[d]imidazol-5-yl)methanone]

The next lines start with the compound.

SMILES | IC50
COc1cc(C(=O)N2C[C@H]3CC[C@@H]2[C@@H]3N)cc2nc(-c3cc4scc(C5CCC(O)CC5)c4n3CC3CC3)n(C)c12 (mixture of isomers) [Example 10, cis/trans-((1R,4R,7R)-7-amino-2-azabicyclo[2.2.1]heptan-2-yl)(2-(4-(cyclopropylmethyl)-3-(4-hydroxycyclohexyl)-4H-thieno[3,2-b]pyrrol-5-yl)-7-methoxy-1-methyl-1H-benzo[d]imidazol-5-yl)methanone] | 46 nM
COc1cc(C(=O)N2C[C@H]3CC[C@@H]2[C@@H]3N)cc2nc(-c3cc4scc(Br)c4n3CC3CC3)n(C)c12 [Example 1, ((1R,4R,7R)-7-amino-2-azabicyclo[2.2.1]heptan-2-yl)(2-(3-bromo-4-(cyclopropylmethyl)-4H-thieno[3,2-b]pyrrol-5-yl)-7-methoxy-1-methyl-1H-benzo[d]imidazol-5-yl)methanone] | 35 nM
COc1cc(C(=O)N2C[C@H]3CC[C@@H]2[C@@H]3N)cc2nc(-c3cc4scc(C5CCNCC5)c4n3CC3CC3)n(C)c12 [Example 3, ((1R,4R,7R)-7-amino-2-azabicyclo[2.2.1]heptan-2-yl)(2-(4-(cyclopropylmethyl)-3-(piperidin-4-yl)-4H-thieno[3,2-b]pyrrol-5-yl)-7-methoxy-1-methyl-1H-benzo[d]imidazol-5-yl)methanone] | 12 nM
COc1cc(C(=O)N2C[C@H]3CC[C@@H]2[C@@H]3N)cc2nc(-c3cc4scc(C5CCN(C(C)=O)CC5)c4n3CC3CC3)n(C)c12 [Example 4, 1-(4-(5-(5-((1R,4R,7R)-7-amino-2-azabicyclo[2.2.1]heptane-2-carbonyl)-7-methoxy-1-methyl-1H-benzo[d]imidazol-2-yl)-4-(cyclopropylmethyl)-4H-thieno[3,2-b]pyrrol-3-yl)piperidin-1-yl)ethan-1-one] | 14 nM
COc1cc(C(=O)N2C[C@H]3CC[C@@H]2[C@@H]3N)cc2nc(-c3cc4scc(C5CC(NC(C)=O)C5)c4n3CC3CC3)n(C)c12 (stereo partly drawn) [Example 5, N-(3-(5-(5-((1R,4R,7R)-7-amino-2-azabicyclo[2.2.1]heptane-2-carbonyl)-7-methoxy-1-methyl-1H-benzo[d]imidazol-2-yl)-4-(cyclopropylmethyl)-4H-thieno[3,2-b]pyrrol-3-yl)cyclobutyl)acetamide] | 19 nM
COc1cc(C(=O)N2C[C@H]3CC[C@@H]2[C@@H]3N)cc2nc(-c3cc4scc(CCC(C)(C)O)c4n3CC3CC3)n(C)c12 [Example 6, ((1R,4R,7R)-7-amino-2-azabicyclo[2.2.1]heptan-2-yl)(2-(4-(cyclopropylmethyl)-3-(3-hydroxy-3-methylbutyl)-4H-thieno[3,2-b]pyrrol-5-yl)-7-methoxy-1-methyl-1H-benzo[d]imidazol-5-yl)methanone] | 32 nM
COc1cc(C(=O)N2C[C@H]3CC[C@@H]2[C@@H]3N)cc2nc(-c3cc4scc(C5CCOCC5)c4n3CC3CC3)n(C)c12 [Example 8, ((1R,4R,7R)-7-amino-2-azabicyclo[2.2.1]heptan-2-yl)(2-(4-(cyclopropylmethyl)-3-(tetrahydro-2H-pyran-4-yl)-4H-thieno[3,2-b]pyrrol-5-yl)-7-methoxy-1-methyl-1H-benzo[d]imidazol-5-yl)methanone] | 40 nM
COc1cc(C(=O)N2C[C@H]3CC[C@@H]2[C@@H]3N)cc2nc(-c3cc4scc(CCC(N)=O)c4n3CC3CC3)n(C)c12 [Example 11, 3-(5-(5-((1R,4R,7R)-7-amino-2-azabicyclo[2.2.1]heptane-2-carbonyl)-7-methoxy-1-methyl-1H-benzo[d]imidazol-2-yl)-4-(cyclopropylmethyl)-4H-thieno[3,2-b]pyrrol-3-yl)propanamide] | 47 nM
COc1cc(C(=O)N2C[C@H]3CC[C@@H]2[C@@H]3N)cc2nc(-c3cc4scc(C5CCOC5)c4n3CC3CC3)n(C)c12 (stereo partly drawn) [Example 12, ((1R,4R,7R)-7-amino-2-azabicyclo[2.2.1]heptan-2-yl)(2-(4-(cyclopropylmethyl)-3-(tetrahydrofuran-3-yl)-4H-thieno[3,2-b]pyrrol-5-yl)-7-methoxy-1-methyl-1H-benzo[d]imidazol-5-yl)methanone] | 49 nM
COc1cc(C(=O)N2C[C@H]3CC[C@@H]2[C@@H]3N)cc2nc(-c3cc4scc(CCN5CCOC5=O)c4n3CC3CC3)n(C)c12 [Example 13, 3-(2-(5-(5-((1R,4R,7R)-7-amino-2-azabicyclo[2.2.1]heptane-2-carbonyl)-7-methoxy-1-methyl-1H-benzo[d]imidazol-2-yl)-4-(cyclopropylmethyl)-4H-thieno[3,2-b]pyrrol-3-yl)ethyl)oxazolidin-2-one] | 54 nM
COc1cc(C(=O)N2C[C@H]3CC[C@@H]2[C@@H]3N)cc2nc(-c3cc4scc(CCCO)c4n3CC3CC3)n(C)c12 [Example 14, ((1R,4R,7R)-7-amino-2-azabicyclo[2.2.1]heptan-2-yl)(2-(4-(cyclopropylmethyl)-3-(3-hydroxypropyl)-4H-thieno[3,2-b]pyrrol-5-yl)-7-methoxy-1-methyl-1H-benzo[d]imidazol-5-yl)methanone] | 56 nM
COc1cc(C(=O)N2C[C@H]3CC[C@@H]2[C@@H]3N)cc2nc(-c3cc4scc(CCC#N)c4n3CC3CC3)n(C)c12 [Example 15, 3-(5-(5-((1R,4R,7R)-7-amino-2-azabicyclo[2.2.1]heptane-2-carbonyl)-7-methoxy-1-methyl-1H-benzo[d]imidazol-2-yl)-4-(cyclopropylmethyl)-4H-thieno[3,2-b]pyrrol-3-yl)propanenitrile] | 59 nM
